# Source: EP0392423A2, “Substituted 1,4-7-10-tetraazacyclotridecanes, method for their preparation and use of the same for labelling substances with radionuclides” (priority 1989, dated 1990)
# Where two headings read alike, the source gives them in different places.
# Tested on: Transferrin
# Conditions: human, serum
# Method: Bei diesen Vergleichsversuchen wurde ¹¹¹In sowohl mit den bekannten 12- und 14-Ring-Cyclamen als auch mit dem erfindungsgemäßen Cyclam aus Beispiel 1 komplexiert und anschließend jeweils der ¹¹¹In-Austausch gegen Transferrin - ein bekanntermaßen gutes Komplexierungsmittel - in humanem Serum bei 37°C untersucht.
¹¹¹In-Austausch gegen Transferrin (12 h),¹¹¹In-Austausch gegen Transferrin (120 h),Substance
"ca. 0,3%",ca. 4%,Dodecatetraacetate [DOTA]
"< 0,1%",ca. 1%,"12-(p-Nitrobenzyl)-1,4,7,10-tetraacetat-1,4,7,10-tetraazacyclotridecan [Beispiel 1]"
